Residues, ends and D or L forms follow the SMILES beside them. No end group written: not given here.
Tests used:
TLR2 = target: T1, TLR2 (Mus musculus, UniProt Q9QUN7); test: Inhibition of TLR2 signaling in thioglycollate-elicited mouse macrophages (effective concentration, TLR2 agonists P3C/P2C); format: cell-based; conditions: mouse macrophages, P3C/P2C
T1 construct: Primary peritoneal macrophages were obtained by peritoneal lavage; endogenous in cells; host or cells: thioglycollate-elicited mouse peritoneal macrophages
T1 sequence (Q9QUN7 25-784): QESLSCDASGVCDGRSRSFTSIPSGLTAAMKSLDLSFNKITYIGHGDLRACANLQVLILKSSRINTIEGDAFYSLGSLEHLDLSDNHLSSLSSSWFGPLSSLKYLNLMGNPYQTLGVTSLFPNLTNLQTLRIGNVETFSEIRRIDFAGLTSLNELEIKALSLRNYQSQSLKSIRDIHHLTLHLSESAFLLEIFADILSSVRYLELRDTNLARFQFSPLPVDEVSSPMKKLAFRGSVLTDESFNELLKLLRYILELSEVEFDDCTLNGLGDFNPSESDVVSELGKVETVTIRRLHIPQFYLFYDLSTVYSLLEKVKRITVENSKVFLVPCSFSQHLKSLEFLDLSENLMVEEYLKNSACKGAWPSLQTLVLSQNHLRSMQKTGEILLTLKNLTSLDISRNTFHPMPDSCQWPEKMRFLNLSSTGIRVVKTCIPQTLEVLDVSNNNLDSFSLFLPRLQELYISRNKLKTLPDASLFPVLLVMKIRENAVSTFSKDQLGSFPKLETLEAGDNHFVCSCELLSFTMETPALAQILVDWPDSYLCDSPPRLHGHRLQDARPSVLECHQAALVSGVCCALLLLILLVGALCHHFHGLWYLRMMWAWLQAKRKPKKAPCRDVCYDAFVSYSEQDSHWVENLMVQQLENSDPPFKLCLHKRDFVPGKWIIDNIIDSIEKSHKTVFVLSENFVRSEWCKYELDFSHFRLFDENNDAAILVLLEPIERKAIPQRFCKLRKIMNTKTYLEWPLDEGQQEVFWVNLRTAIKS
Description: C57BL/6J mice were obtained from The Jackson Laboratory (Bar Harbor, Me.). Primary peritoneal macrophages were obtained by peritoneal lavage 4 days after intraperitoneal injection (3 ml) of sterile 3% thioglycolate broth. Washed cells were resuspended in RPMI 1640 which contained 2% FBS, 1% penicillin:streptomycin and 2 mM L-glutamine. After plating, cells were incubated overnight at 37° C. and then washed with PBS to remove non-adherent cells. Cells were exposed to peptides 30 min before stimulation with a TLR agonist.
(§1) Protein-free Escherichia coli K235 LPS was used at final concentration of 10 ng/ml to stimulate cells. S-[2,3-bis(palmitoyloxy)-(2-RS)-propyl]-N-palmitoyl-(R)-Cys-Ser-Lys4-OH (P3C) and S-[2,3-bis(palmitoyloxy)-(2-RS)-propyl]-[R]-Cys-Ser-Lys4-OH (P2C) were purchased from EMC microcollections GmbH (Tubingen, Germany) and used for cell stimulation at 500 and 50 ng/ml, respectively. Phospho-ERK1/2 and phospho-JNK1/2 rabbit Abs were obtained from Cell Signaling Technology, Inc. β-actin rabbit Ab were from SantaCruz Biotechnology, Inc.
(§2) Because of the role TRAP plays in TLR2 signaling, TIRAP TIR-derived decoy peptide effects on TLR2-induced cytokine mRNA expression were examined. Thioglycollate-elicited mouse macrophages were stimulated either by P2C, an agonist that induces signaling through TLR2/TLR6 heterodimerization, or P3C, a TLR2/TLR1 agonist, and effects of TIRAP TR-derived decoy peptides on induction of cytokine mRNA were examined. […] To confirm the inhibitory effect of TR3 and TR6 on P3C-induced signaling, IL-6 and TNF-α concentration was measured in macrophage supernatants collected 5 h after stimulation of cells with P3C. […] Concordantly, both TR3 and TR6 diminished the P3C-induced ERK phosphorylation (FIG. 3D).
(§3) C57BL/6J mice were obtained from The Jackson Laboratory (BarHarbor, Me.). Harvesting, culturing, and stimulation of peritoneal macrophages were described in previous publications (1, 18, 19). Escherichia coli K235 LPS (34) was used at the final concentration of 100 ng/ml. The 2,3-bis(palmitoyloxy)-(2-RS)-propyl-N-palmitoyl-(R)-Cys-Ser-Lys4-OH (P3C) and S[2,3-bis(palmitoyloxy)-(2-RS)-propyl]-[R]-Cys-Ser-Lys4-OH (P2C) (EMC Microcollections, Tubingen, Germany) were used at 500 and 50 ng/ml, respectively. Oligonucleotide (ODN) 1668 and low m.w. polyinosinic-polycytidylic acid [poly(I:C)] in complex with LyoVec were obtained from InvivoGen; these agonists were used at 2.5 μM and 400 ng/ml, respectively.

TLR2/TLR6 heterodimer = target: T2, TLR2/TLR6 heterodimer (Mus musculus, UniProt Q9QUN7); test: P2C-induced cytokine mRNA expression in mouse macrophages; format: cell-based; conditions: P2C 50 ng/ml, 1 h
T2 construct: endogenous in cells; host or cells: thioglycollate-elicited mouse peritoneal macrophages
T2 sequence (Q9QUN7 25-784, one chain of several): as the sequence (Q9QUN7 25-784) above
Excerpt: (§4) Total cellular RNA was isolated using Tripure from Roche (San Francisco, Calif.) following manufacture's protocol. RNA was then reverse transcribed using AMV Reverse Transcriptase from Promega (Madison, Wis.) with poly-T priming as per manufacturer's directions. cDNA was then quantified by real-time PCR using Applied Biosystems Fast SYBR Green PCR Master Mix and an ABI Prism 7500HT cycler. Primers used for detection: hypoxanthine phosphoribosyltransferase (HPRT) (forward: […] (SEQ ID NO:51), reverse: […] (SEQ ID NO:52)), TNFα (forward: […] (SEQ ID NO:53), reverse: […] (SEQ ID NO:54)), IL-1β (forward: […] (SEQ ID NO:55), reverse: […] (SEQ ID NO:56)), IFNβ (forward: […] (SEQ ID NO:57), reverse: CTCGGACCACCATCCAGG (SEQ ID NO:58)) and RANTES (forward: […] (SEQ ID NO:59), reverse: […] (SEQ ID NO:60)). The primers were designed using Primer Express 2.0 (Applied Biosystems). Using HPRT as reference, the ΔCt method was used to calculate relative gene expression. One-way ANOVA was preformed, as well as Dunnett's multiple comparison post hoc test with a p≦0.01 selected as the level of significance.
as §1, §2, §3

MAPK (ERK, JNK, p38) = test: MAPK activation by peptide alone, macrophages without TLR agonist; format: cell-based, mouse; conditions: 20 μM peptide, 1 hour incubation
Description: Neither TIRAP peptide activated ERK in cells incubated without a TLR agonist (not shown). […] The mechanism of this differential MAPK activation by select peptides, although interesting, is not understood at this time. Peptides TR9 and TR11 inhibited both ERK and JNK MAPKs (FIG. 1D). Peptide-induced inhibition of ERK persisted over a long period of time.
We next examined whether TRAM peptides inhibit the TLR4-mediated p38, ERK, and JNK MAPK activation. Murine macrophages pretreated with peptides for 30 min were challenged with LPS. Cell lysates were collected 30 min post-stimulation and analyzed for MAPK phosphorylation by Western analysis. Consistent with peptide effects on steady-state mRNA, both TM4 and TM6 inhibited activation of all three MAPKs (FIG. 5C). The inhibition of MAPKs by TM4 or TM6 was long lasting; it persisted for at least 1 h after LPS stimulation (data not shown). To characterize further the effects of TRAM peptides on MAPKs, murine macrophages were treated with TRAM peptides, but not challenged by LPS.

TLR2/TLR1 heterodimer = target: T3, TLR2/TLR1 heterodimer (Mus musculus, UniProt Q9QUN7); test: P3C-induced cytokine mRNA expression in mouse macrophages; format: cell-based; conditions: P3C 500 ng/ml, 1 h
T3 construct: endogenous in cells; host or cells: thioglycollate-elicited mouse peritoneal macrophages
T3 sequence (Q9QUN7 25-784, one chain of several): as the sequence (Q9QUN7 25-784) above
Excerpt: as §4, §1, §2, §3

Row | Compound | Inhibition of TLR2 signaling (overall) (TLR2) | P2C-induced TNFα and IL-1β mRNA (TLR2/TLR6 heterodimer; 20 μM peptide) | P2C-induced TNFα and IL-1β mRNA (TLR2/TLR6 heterodimer; 40 μM peptide) | JNK activation in macrophages without TLR agonist (MAPK (ERK, JNK, p38)) | P3C-induced TNFα and IL-1β mRNA (TLR2/TLR1 heterodimer; 20 μM peptide) | P3C-induced TNFα and IL-1β mRNA (TLR2/TLR1 heterodimer; 40 μM peptide)
1 | RQIKIWFQNRRMKWKKEGSQASLRCF [TR3] | inhibits | significantly less | did not affect significantly | moderately activated | inhibited | profoundly inhibited
2 | RQIKIWFQNRRMKWKKPGFLRDPWCKYQML [TR6] |  | significantly less | did not affect significantly | moderately activated | inhibited | profoundly inhibited
3 | CC[C@H](C)[C@H](NC(=O)[C@H](CCCCN)NC(=O)[C@@H](NC(=O)[C@H](CCC(N)=O)NC(=O)[C@@H](N)CCCNC(=N)N)[C@@H](C)CC)C(=O)N[C@@H](Cc1c[nH]c2ccccc12)C(=O)N[C@@H](Cc1ccccc1)C(=O)N[C@@H](CCC(N)=O)C(=O)N[C@@H](CC(N)=O)C(=O)N[C@@H](CCCNC(=N)N)C(=O)N[C@@H](CCCNC(=N)N)C(=O)N[C@@H](CCSC)C(=O)N[C@@H](CCCCN)C(=O)N[C@@H](Cc1c[nH]c2ccccc12)C(=O)N[C@@H](CCCCN)C(=O)N[C@@H](CCCCN)C(=O)N[C@@H](CCC(=O)O)C(=O)N[C@@H](CC(C)C)C(=O)N[C@@H](CS)C(=O)N[C@@H](CCC(N)=O)C(=O)N[C@@H](C)C(=O)N[C@@H](CC(C)C)C(=O)N[C@@H](CO)C(=O)N[C@@H](CCCNC(=N)N)C(=O)N[C@@H](CO)C(=O)N[C@@H](Cc1c[nH]cn1)C(=O)N[C@@H](CS)C(=O)N[C@@H](CCCNC(=N)N)C(=O)O [TR5] (H-RQIKIWFQNRRMKWKKELCQALSRSHCR-OH) | does not |  |  |  |  | 

Source: patent publication US20130203649A1, “INHIBITORS OF TLR SIGNALING BY TARGETING TIR DOMAIN INTERFACES” (UNIVERSITY OF MARYLAND, BALTIMORE, priority 2012, published 2013)
